Experimental data: patent US20160272709A1, “ANTI-KIR ANTIBODIES” (The Regents of the University of Michigan, priority 2015, published 2016)

What was measured:
[1] = lupus patients; cited from earlier work
[2] = test system: CD4^+KIRL1^+CD11a^hiCD40L^+ subset; assay: Multicolor flow cytometry of splenocytes of SJL mice given dox for 6 weeks; format: in vivo; conditions: dox 6 weeks; controls 0.007%
Text: SJL mice were given dox for 6 weeks, sacrificed, then splenocytes stained with Pacific Blue-CD3; FITC-CD8; PE-CD40L; PE-Cy5-CD4; Avidin-APC-Cy7/biotin-KIRL1; PERCP-Cy5.5-CD11a. Mice receiving dox developed a CD4^+KIRL1^+CD11a^hiCD40L^+ subset that resembles the human lupus subset shown in FIG. 1, and represented 1.09% of the total CD11a+ cells, while controls had only 0.007% CD4^+KIRL1^+CD11a^hiCD40L^+ cells.

CD4^+KIR^+NK1.1^− cells [3] = assay: Flow cytometry (6G10) of KIR on CD4+ splenocytes of tet-on dnMEK transgenic mice receiving dox; format: in vivo
Experimental: FIGS. 3A-B.) Double transgenic mice were given Dox (B) or not (A) in their drinking water, then KirL1 expression was measured on CD4+ splenocytes by flow cytometry.
(§1) To test if the mouse T cell KIR genes are also activated by DNA methylation inhibition, murine splenocytes were stimulated with ConA, treated with 5-azaC, and KIRL1 mRNA measured relative to GAPDH by RT-PCR in CD4+ T cells bead purified by negative selection to remove NK and other non-CD4+ T cells.

CD3^+CD4^+CD28^+ T cells = assay: KIR and CD11a expression on PHA-stimulated, 5-azaC treated PBMC (flow cytometry); format: cell-based, human
Experimental: FIGS. 11A-D. 5-Azacytidine treatment of PHA-stimulated PBMC induces the expression of KIR proteins on a subset of CD4^+CD28^+CD11a^hi T cells. PBMC were stimulated for 18-24 hrs with PHA followed by treatment with 2.5 μM 5-azacytidine or saline for 72 hrs. The cells were then stained with fluorochrome-conjugated antibodies to methylation-sensitive gene products, fixed and analyzed by flow cytometry as described in Methods. Gating was established to select CD3^+CD4^+CD28^+ T cells. The CD3^+CD4^+CD28^+ T cells were then analyzed for CD11a and KIR using a cocktail of 5 PE-conjugated anti-KIR antibodies and imaged on a FACS Synergy flow cytometer. (A), Untreated T cells. (B), 5-azaC treated T cells. (C), 5-azaC treated PBMC stained only with the cocktail of anti-KIR antibodies. (D), 5-azaC treated T cells stained with antibodies to CD3, CD4, CD28, CD11a, CD70 and CD40L but not KIR. The figure shown is representative of 9 separate cultures.
The expression of methylation-sensitive genes was analyzed in 5-azaC treated cells from healthy women. PBMCs from a healthy […] were stimulated with PHA then cultured with or without 5-azaC. Seventy-two hours later the cells were washed, stained with fluorochromeconjugated antibodies to CD3, CD4, CD28, CD11a, CD70 and CD40L with and without a “cocktail” of PE conjugated antibodies to 5 distinct KIR proteins then analyzed by flow cytometry as outlined in FIG. 10. […]
In the absence of treatment with the demethylating agent 5-azaC very few KIR+ cells were observed (FIG. 11A). […] Further, CD11a expression on the majority (>70%) of the KIR^+CD3^+CD4^+CD28^+ cells treated with 5-azaC (FIG. 11B, rectangle) was nearly twice that of the corresponding KIR− T cells (FIG. 11B, circle) from the same cultures (median fluorescence intensity 2298+/−748 SD, versus 1394+/−572, respectively, n=9 analyzed in 7 different experiments, p<0.001). […]

CD4^+KIR^+NK1.1^− cells [4] = assay: Flow cytometry (6G10) of KIR on murine T cells treated with 5-azaC; format: cell-based
KIRL1 mRNA = KIRL1 mRNA relative to GAPDH by RT-PCR in CD4+ T cells from 5-azaC treated splenocytes; format: cell-based, murine; conditions: ConA-stimulated splenocytes, n=4, p=0.038
Experimental: FIGS. 2A-B. (A) Murine splenocytes were stimulated with […], treated or not with 5-azaC, then KirL1 mRNA was measured in CD4^+ T cells relative to GAPDH by RT-PCR. (B) Double transgenic mice were given Dox or not in their drinking water, then KirL1 mRNA measured in CD4+ splenocytes as in panel A.
as §1

CC(=O)N[C@@H](CS)C(=O)O [N-acetylcysteine]
flare severity [1]: decreases flare severity

C[C@H]1c2cccc(O)c2C(=O)C2=C(O)[C@]3(O)C(=O)C(C(N)=O)=C(O)[C@@H](N(C)C)[C@@H]3[C@@H](O)[C@@H]21 [dox, doxycycline]
CD4^+KIRL1^+CD11a^hiCD40L^+ subset, % of total CD11a+ cells [2]: 1.09% | KIR expression, % of total CD4+ T cells (CD4^+KIR^+NK1.1^− cells [3]; tet-on mouse with higher KIR expression, FIGS. 3A-B): 3.9% | increase in CD4^+KIR^+NK1.1^− cells (CD4^+KIR^+NK1.1^− cells [3]; transgenic mice receiving dox): 5.7 fold

Nc1ncn([C@@H]2O[C@H](CO)[C@@H](O)[C@H]2O)c(=O)n1 [5-azaC, 5-azacytidine]
numbers of KIR+ cells (CD3^+CD4^+CD28^+ T cells; 2.5 μM 5-azaC 72 hrs after PHA): increases the numbers of KIR+ cells | CD11a median fluorescence intensity on KIR^+CD3^+CD4^+CD28^+ cells (CD3^+CD4^+CD28^+ T cells; 5-azaC treated cultures, SD, n=9, p<0.001 vs KIR− cells): 2298+/−748 | CD11a median fluorescence intensity on corresponding KIR− T cells (CD3^+CD4^+CD28^+ T cells; same 5-azaC treated cultures, SD, n=9): 1394+/−572 | increase in CD4^+KIR^+NK1.1^− cells (CD4^+KIR^+NK1.1^− cells [4]): 3.1 fold | KIRL1 mRNA relative to GAPDH (KIRL1 mRNA): overexpressed KIRL1 mRNA
